# In patent US20230219963A1, “PYRROLO[2,3-D]PYRIMIDINE DERIVATIVES” (Pfizer Inc., priority 2020, published 2023):
# Assays:
# Assay type in all cases: cell-based
# IL-21 induced pSTAT3 = test: IL-21-induced pSTAT3 in human whole blood (lymphocytes); settings: Lymphocyte, JAK1/JAK3, read-out: IL-21 induced pSTAT3, cellular potency IC50
# Experimental: (§1) Human whole blood was collected from healthy donors via vein puncture into Vacutainer collection tubes containing sodium heparin in accordance with Pfizer protocols (Protocol No. GOHW RDP-01) approved by the Shulman Institutional Review Board. Blood was warmed to 37° C. priorto use. Human whole blood was aliquoted (90 μL/well) in 96-well, deep-well, V-bottom plates and treated with compounds (5 μL/well) at different concentrations up to 60 μM (0.2% DMSO final) at 37° C. for 60 minutes. This was followed by a challenge with IFNα (5000 U/mL), IFNγ (100 ng/mL), IL-6 (50 ng/mL), IL-10 (30 ng/mL), IL-12 (30 ng/mL), IL-15 (30 ng/mL), IL-21 (50 ng/mL), IL-23 (25 ng/mL), IL-27 (1000 ng/mL), EPO (2 U/mL), TSLP (50 ng/mL) or PBS and incubated for 15 minutes. Anti-cell surface antibodies were added 15 minutes prior to cytokine stimulation; anti-CD3-BV421 (0.5 μL/well) to IL-6-treated and TSLP-treated samples and anti-CD14-BV421 (0.5 μL/well) to IFNγ-treated samples. Samples were treated with warm 1×Lyse/Fix buffer (700 μL/well) to terminate activation and further incubated at 37° C. for 20 minutes to lyse red blood cells. Plates were centrifuged at 300×g for 5 minutes, supernatant was aspirated, and cells were washed with 800 μL/well of staining buffer (D-PBS containing 0.1% FBS and 0.01% sodium azide). Washed cell pellets were resuspended in 350 μL/well of prechilled 90% methanol and incubated at 4° C. for 30 minutes. After the removal of 90% methanol, cells were washed once with staining buffer. All samples were finally suspended in 150 μL/well of the desired anti-phospho-STAT antibodies at 1:150 dilution in staining buffer; anti-pSTAT1-AF647 in IFNγ treated samples; anti-pSTAT1-AF488 and anti-pSTAT3-AF647 in IL-6-treated samples, anti-pSTAT3-AF647 in IFNα, IL-10, IL-21, IL-23 and IL-27 treated samples, anti-pSTAT4-AF647 in IL-12 treated samples, anti-pSTAT5-AF-647 in EPO, IL-15 and TSLP-treated samples. Human primary keratinocytes were cultured in DermaLife™ medium with supplement kit to expand cell population. Cell passages 2 to 5 were used in the assays. Cells were harvested at ˜80% confluence, suspended in warm DermaLife™ medium, aliquoted (90 μL/well) in 96-well, deep-well, V-bottom plates, and incubated at 37° C. for 30 minutes. Cells were then treated with compounds (0.0003 to 20 μM) for 60 minutes and followed by stimulation with IL-4 (2 ng/mL) or IL-13 (20 ng/mL) at 37° C. for 15 minutes. […]
# (§2) After overnight incubation at 4° C., anti-pSTAT stained samples were transferred into 96-well polypropylene U-bottom plates and flow cytometric analysis was performed on a LSR Fortessa™ equipped with a HTS plate loader. […] Background fluorescence was defined using unstimulated cells and a gate was placed at the foot of the peak to include ˜0.5% gated population. […]
# TSLP induced pSTAT5 = test: TSLP-induced pSTAT5 in human whole blood (CD3+ cells); settings: JAK1/JAK2, read-out: TSLP induced pSTAT5, cellular potency IC50
# Experimental: (§3) Human whole blood was collected from healthy donors via vein puncture into Vacutainer collection tubes containing sodium heparin in accordance with Pfizer protocols (Protocol No. GOHW RDP-01) approved by the Shulman Institutional Review Board. Blood was warmed to 37° C. priorto use. Human whole blood was aliquoted (90 μL/well) in 96-well, deep-well, V-bottom plates and treated with compounds (5 μL/well) at different concentrations up to 60 μM (0.2% DMSO final) at 37° C. for 60 minutes. This was followed by a challenge with IFNα (5000 U/mL), IFNγ (100 ng/mL), IL-6 (50 ng/mL), IL-10 (30 ng/mL), IL-12 (30 ng/mL), IL-15 (30 ng/mL), IL-21 (50 ng/mL), IL-23 (25 ng/mL), IL-27 (1000 ng/mL), EPO (2 U/mL), TSLP (50 ng/mL) or PBS and incubated for 15 minutes. Anti-cell surface antibodies were added 15 minutes prior to cytokine stimulation; anti-CD3-BV421 (0.5 μL/well) to IL-6-treated and TSLP-treated samples and anti-CD14-BV421 (0.5 μL/well) to IFNγ-treated samples. Samples were treated with warm 1×Lyse/Fix buffer (700 μL/well) to terminate activation and further incubated at 37° C. for 20 minutes to lyse red blood cells. Plates were centrifuged at 300×g for 5 minutes, supernatant was aspirated, and cells were washed with 800 μL/well of staining buffer (D-PBS containing 0.1% FBS and 0.01% sodium azide). Washed cell pellets were resuspended in 350 μL/well of prechilled 90% methanol and incubated at 4° C. for 30 minutes. After the removal of 90% methanol, cells were washed once with staining buffer. […]
# as §2
# IL-13 induced pSTAT6 = test: IL-13-induced pSTAT6 in human keratinocytes; settings: Keratinocyte, JAK1/JAK2, read-out: IL-13 induced pSTAT6, cellular potency IC50
# Experimental: as §3, §2
# IL-10 induced pSTAT3 = test: IL-10-induced pSTAT3 in human whole blood (lymphocytes); settings: Lymphocyte, JAK1/TYK2, read-out: IL-10 induced pSTAT3, cellular potency IC50
# Experimental: as §1, §2
# IL-15 induced pSTAT5 = test: IL-15-induced pSTAT5 in human whole blood (lymphocytes); settings: Lymphocyte, JAK1/JAK3, read-out: IL-15 induced pSTAT5, cellular potency IC50
# Experimental: as §1, §2
# EPO induced pSTAT5 = test: EPO-induced pSTAT5 in human whole blood (all events); settings: JAK2/JAK2, read-out: EPO induced pSTAT5, cellular potency IC50
# Experimental: as §1, §2
# IL-27 induced pSTAT3 = test: IL-27-induced pSTAT3 in human whole blood (lymphocytes); settings: Lymphocyte, JAK1/JAK2, read-out: IL-27 induced pSTAT3, cellular potency IC50
# Experimental: as §1, §2
# IL-6 induced pSTATI = test: IL-6-induced pSTAT1 in human whole blood (CD3+ cells); settings: JAK1/JAK2, read-out: IL-6 induced pSTATI, cellular potency IC50
# Experimental: as §1, §2
# IL-22 induced pSTAT3 = test: IL-22-induced pSTAT3 in human keratinocytes; settings: Keratinocyte, JAK1/TYK2, read-out: IL-22 induced pSTAT3, cellular potency IC50
# IL-4 induced pSTAT6 = test: IL-4-induced pSTAT6 in human keratinocytes; settings: Keratinocyte, JAK1/JAK2, read-out: IL-4 induced pSTAT6, cellular potency IC50
# Experimental: as §3, §2
# IFNg induced pSTATI = test: IFNγ-induced pSTAT1 in human whole blood (CD14+ cells); settings: JAK1/JAK2, read-out: IFNg induced pSTATI, cellular potency IC50
# Experimental: as §1, §2
# IL-23 induced pSTAT3 = test: IL-23-induced pSTAT3 in human whole blood (lymphocytes); settings: Lymphocyte, JAK2/TYK2, read-out: IL-23 induced pSTAT3, cellular potency IC50
# Experimental: as §1, §2
# IL-31 induced pSTAT3 = test: IL-31-induced pSTAT3 in IFNγ-primed THP-1 cells; settings: Homo sapiens, JAK1/JAK2, read-out: IL-31 induced pSTAT3, cellular potency IC50
# Experimental: THP-1 cells were maintained in RPMI 1640 medium containing 10% FBS, 50 μM 2 mercaptoethanol, 50 U/mL penicillin, 50 µg/mL streptomycin and 2 mM L-glutamine. THP 1 cells were treated with IFNγ (20 ng/mL) for 18 hours. IFNγ primed THP-1 cells were resuspended in fresh RPMI 1640 medium, treated with compounds (0.0003 to 20 μM) for 60 minutes, followed by stimulation with IL-31 (1 μg/mL) for additional 10 minutes. Cells were then fixed by 2% paraformaldehyde and permeabilized by 90% methanol. Fixed and permeabilized cells were stained with AlexaFluor647™ labeled anti-pSTAT3 antibody (1 to 150 dilution).
# After overnight incubation at 4° C., anti-pSTAT stained samples were transferred into 96-well polypropylene U-bottom plates and flow cytometric analysis was performed on a LSR Fortessa™ equipped with a HTS plate loader. For human whole blood samples, lymphocyte population was gated for pSTAT histogram analysis for IFNα, IL-10, IL-12, IL-15, IL-21, IL-23, and IL-27-treated samples; CD14^+ cells for IFNγ-treated samples; CD3^+ cells for IL-6 and TSLP-treated samples; all events (entire populations) for EPO-treated samples. Entire populations of keratinocytes and THP-1 cells were gated for the IL-4, IL-13, IL-22 and IL-31 assays. Background fluorescence was defined using unstimulated cells and a gate was placed at the foot of the peak to include ˜0.5% gated population. Histogram statistical analysis was performed using FACSDiva version 8.0. Relative fluorescence unit, which measures the level of pSTAT, was calculated by multiplying the percent positive population and its mean fluorescence. Inhibition curves and half maximal inhibitory concentration (IC50) values were determined using Prism™ software (Version 8) or the Activity Base data analysis software (ID Business Solutions).
smiles,measurement,setting,value
"CCCS(=O)(=O)N[C@H]1C[C@@H](N(C)c2ncnc3[nH]ccc23)C1 [Abrocitinib, N-((1S,3S)-3-(Methyl(7H-pyrrolo[2,3-d]pyrimidin-4-yl)amino)cyclo-butyl)propane-1-sulfonamide, reference compound]",IC50,IL-21 induced pSTAT3,516 nM
same,IC50,TSLP induced pSTAT5,1020 nM
same,IC50,IL-13 induced pSTAT6,81.9 nM
same,IC50,IL-10 induced pSTAT3,3.7 µM
same,IC50,IL-15 induced pSTAT5,537 nM
same,IC50,EPO induced pSTAT5,7.18 µM
same,IC50,IL-27 induced pSTAT3,228 nM
same,IC50,IL-6 induced pSTATI,343 nM
same,IC50,IL-22 induced pSTAT3,420 nM
same,IC50,IL-4 induced pSTAT6,77 nM
same,IC50,IFNg induced pSTATI,1690 nM
same,IC50,IL-23 induced pSTAT3,> 16.5 µM
same,IC50,IL-31 induced pSTAT3,40 nM
